These are literature values, as cited in patent US12394803B2, “Production method of catalyst, catalyst, production method of composition, composition, electrode, manufacturing method of electrode, fuel cell, metal-air battery” (Azul Energy Inc., priority 2019, dated 2025).

The conditions of this data set: background statement on Patent Document 1.

Turning to `[Fe+2].c1ccc2c(c1)-c1nc-2nc2[n-]c(nc3nc(nc4[n-]c(n1)c1ccccc41)-c1ccccc1-3)c1ccccc21` [Iron phthalocyanines, Iron phthalocyanine], the “Solubility in 2-propanol” value is reported as “low solubility”.
